“And” between values parts separate entries of the source, which are not always exact repeats. Equal entries are not always repeated. Where two headings read alike, the source gives them in different places. Marks after values point to notes of the source that are not given here.
Key:
[1] = system: C57BL6 mice challenged with 2.5% DSS; experiment: DSS colitis model of experimental IBD (Experiment 1); format: in vivo
[2] = 0.6 g punicic acid/100 g food, 38 days, oral
Description: All specimens were generally labeled with the following information: 1) mouse number; 2) date collected; 3) experiment number; 4) type of solvent; and 5) tissue type.

[3] = system: C57BL6 mice fed regular or high fat diets; conditions: day 78, least squares mean
Description: (§1) In Western countries, Metabolic Syndrome or Syndrome X (i.e., diabetes, obesity, cardiovascular disease, hypertension and hyperlipidemia) is on a steady rise. […] A total of fifty C57BL6 mice were used in experiment 4. […] These diets are defined as regular diets and were formulated to be isocaloric between treatment groups. […] The high fat diets were also formulated to be isocaloric between treatment groups. The remaining mice within each group (n=5) were fed the regular diets. On day 78 of the experiment, mice were killed, blood was collected and immediately analyzed for fasting glucose concentrations by using the Accu-Check Instant Plus System (Roche Diagnostics Corporation, Indianapolis, Ind.) or stored for subsequent analysis of insulin concentrations in plasma. Abdominal white adipose tissue and interscapular brown adipose tissue were collected, weighed and stored at −80° C. for RNA analyses. Liver, lungs, kidneys, pancreas and heart were examined for macroscopic abnormalities (gross lesions), fixed in phosphate-buffered formalin (10%) and processed as described in experiment 1 for histological evaluation. All specimens were generally labeled with the following information: 1) mouse number; 2) date collected; 3) experiment number; 4) type of solvent; and 5) tissue type.
Serum insulin concentrations were determined by using commercially available enzyme-linked immunosorbent assay kits (Linco Research, St. Charles, Mo.).
Data were analyzed by analysis of variance (ANOVA). The ANOVA was performed by using the general linear model procedure of SAS (SAS Institute Inc., Cary, N.C.) as previously described (Bassaganya-Riera et al. 2004). Differences with probability value (P<0.05) were considered significant.

[4] = 105-day dietary supplementation, 0.6 g punicic acid/100 g food
[5] = system: splenocytes stimulated with VR-1469 influenza virus antigens
[6] = system: splenocytes
Experimental: (§2) cRPMI medium was prepared as shown above. Wells of 96-well flat-bottomed microtiter plates (Becton Dickinson, Lincoln Park, N.J.) were seeded with 2×10^5 mononuclear cells in a total volume of 200 μl per well. Wells contained either concanavalin A (5 μg/ml, Con-A; Sigma), or medium alone (non-stimulated). Plates were incubated for 5 days at 37° C. in 5% CO2 humidified atmosphere. After 5 days, 0.5 μCi of methyl-[^3H] thymidine (specific radioactivity 6.7 Ci mmol^−1; Amersham Life Science, Arlington Heights, Ill.) in 10 μl of medium was added to each well and plates incubated for an additional 20 h. Well contents were harvested onto fiber filters with a PHD cell harvester (Skatron Instruments Inc., Sterling, Va.) and incorporated radioactivity measured by liquid scintillation counting (Beckman Instruments, Schaumburg, Ill.). Samples were run in triplicate and stimulation indices (SI) calculated by dividing counts min^−1 of stimulated wells by counts min^−1 from non-stimulated wells.
(§3) Statistical analysis was performed by analysis of variance (ANOVA). […] Differences with a probability value (P<0.05) were considered statistically significant.

[7] = system: lymph node-derived lymphocytes
Experimental: as §2, §3

[8] = system: C57BL6 mice fed regular or high fat diets; conditions: day 78, intraperitoneal D-glucose after 14 hours fast
Description: as §1
A glucose tolerance test was conducted on day 78 of the experiment. Animals were fasted overnight (14 hours).

[9] = punicic acid-supplemented diets, 78 days
Description: as §1

[10] = system: colonic lymph nodes; conditions: 0.6 g punicic acid/100 g food, least square mean ± SEM
Experimental: (§4) A total of twenty-two C57BL6 mice were used in Experiment 2. All mice were born on Nov. 23, 2003, weaned on Dec. 16, 2003 and fed the experimental diets from Dec. 19, 2003 to Jan. 15, 2004. […] Mice were weighed on a weekly basis. Mice were euthanized. Blood was collected from each mouse for generating serum, which was stored at −20° C. Thymus, spleen and colonic lymph nodes were harvested, weighed and collected in cRPMI in sterile conditions. Colon and liver specimens were collected in RNA later (Ambion Inc., Austin, Tex.) and frozen at −80° C. for gene expression analysis. Brain, kidney, liver, colon and ileum were also collected in a 10% buffered neutral formalin solution and processed as described in experiment 1 for histological evaluation. The remaining portion of the carcass was stored in 50-mL, conical tubes and frozen at −20° C. for body composition and fatty acid analysis. All specimens were generally labeled with the following information: 1) mouse number; 2) date collected; 3) experiment number; 4) type of solvent; and 5) tissue type. Tissue slides were examined in an Olympus microscope (Olympus America Inc., Dulles, Va.). Images were captured using the FlashBus FBG software (Integral Technologies, Indianapolis, Ind.) and processed in Adobe Photoshop Elements 2.0 (Adobe Systems Inc., San Jose, Calif.).
(§5) Spleens, thymuses and colonic lymph nodes were collected in complete RPMI on ice. Single-cell suspensions were obtained from each tissue by gently disrupting the tissue between two frosted ends of two glass slides on a petri dish containing 3 mL of cRPMI. The single-cell suspension was transferred from the petri dish to a 15-mL polypropylene tube (Fisher, Atlanta, Ga.) and washed by centrifuging in an Eppendorf 5810 R centrifuge (Westbury, N.Y.) at 200×g for 5 minutes at 4° C. The supernatant was discarded by decantation of the tube. The cell pellet was broken by gently tapping the tube against a solid surface. The total numbers of spleenocytes, thymocytes and colonic lymph node lymphocytes in each mouse were enumerated in a Z1 Coulter Single Particle Counter (Miami, Fla.). Briefly, 10-mL of isoton II diluent solution (Beckman Coulter, Miami, Fla.) were added into a counting vial, followed by 40 μL of the cell suspension, 4 drops of Zapaglobin (Beckman Coulter, Miami Fla.), and 10 additional mL of the isoton solution. The volume in which the cells were resuspended was assessed using a 5-mL, sterile pipette. The concentration of cells/mL and the total volume in each tube were used to determine the total amount of cells in each tissue and mouse.
(§6) A description of the uses of flow cytometry was provided in Experiment 1. Splenocyte suspensions were freed of erythrocytes by osmotic lysis (adding 4.5 mL of sterile deionized water for 1 to 2 seconds and then adding 0.5 mL of 10× PBS to make 1× PBS solution). Cells were washed again by centrifuging in an Eppendorf 5810 R centrifuge (Westbury, N.Y.) at 200×g for 5 minutes at 4° C. The supernatant was discarded by decantation of the tube. The cell pellet was broken by gently tapping the tube against a solid surface. FACS buffer (1 mL) was added in each tube. Splenocytes, thymocytes and colonic lymph node-derived mononuclear cells were enumerated in a Z1 Coulter Single Particle Counter (Miami, Fla.), adjusted to 2×10^6 cells/mL. Splenocytes, thymocytes, and colonic lymph nodes were analyzed for expression of CD4, CD8, CD3, TCRalphabeta, TCRgammadelta and CD19 molecules by flow cytometry as previously described (Bassaganya-Riera et al. 2001; Bassaganya-Riera et al. 2002; Bassaganya-Riera et al. 2003). Briefly, a volume of 100 μl of the splenocyte, thymocyte, and colonic lymph node lymphocyte suspension was added in to a round-bottomed microtiter plate (Becton Dickinson, Lincoln Park, N.J.) and stained with 50 μl of the primary antibody solutions in FACS buffer.

[11] = system: thymus; conditions: 0.6 g punicic acid/100 g food; least square mean ± SEM
Experimental: as §4, §5, §6

[12] = system: spleen; conditions: 0.6 g punicic acid/100 g food; least square mean ± SEM
Experimental: as §4, §5, §6

[13] = 7-day challenge with 2.5% DSS, grade 0 to 4, least square mean ± SEM
[14] = concanavalin A 5 μg/ml, cells from mice fed 0.6 g punicic acid/100 g food
[15] = counts of Con A-stimulated wells divided by counts of non-stimulated wells
[16] = non-stimulated, cells from mice fed 0.6 g punicic acid/100 g food

CCCC\C=C/C=C/C=C\CCCCCCCC(=O)O [punicic acid]
start of rectal bleeding, on average ([1]; 0.6 g punicic acid/100 g food, 2.5% DSS challenge): 7 day of the DSS challenge | mortality rate associated with colonic inflammation ([1]; 0.6 g punicic acid/100 g food, by day 6 of the 2.5% DSS challenge): 0% | Histological score: Crypt Damage [1, 13]: 0.33 ± 0.26 | Histological score: Epithelial Erosion [1, 13]: 0.00 ± 0.00 | Histological score: Inflammatory Cell Infiltration [1, 13]: 0.50 ± 0.17 | Histological score: Metaplasia/Hyperplasia [1, 13]: 0.50 ± 0.28 | Histological score: Mucosal Thickness [1, 13]: 1.83 ± 0.24 | Histological score: Vascular Changes [1, 13]: 0.50 ± 0.35 | colitis-associated disease ([1]; diet fed 32 days prior to 7-day DSS challenge (2.5%, wt/vol)): improved | average colon weights ([1]; following the DSS challenge): 0.153 grams | average macroscopic score in colons (scale from 0 to 3) ([1]; following the DSS challenge): 1.4 | histopathological examination of H&E-stained slides of colon ([1]; following the DSS challenge): no major lesions | adverse effects throughout the duration of the study [2]: No adverse effects were observed | macroscopic and histologic analysis of liver, kidneys and brain [2]: no abnormalities | Brown adipose tissue (interscapular) weight ([3]; High Fat Diets): 0.124 g | White adipose tissue (abdominal) weight ([3]; High Fat Diets): 0.830^b g | plasma fasting Glucose ([3]; High Fat Diets): 219.5^b mg/dL | plasma fasting Insulin ([3]; High Fat Diets): 1.229^b ng/mL | Brown adipose tissue (interscapular) weight ([3]; Regular Diets): 0.138 g | White adipose tissue (abdominal) weight ([3]; Regular Diets): 0.801^b g | plasma fasting Glucose ([3]; Regular Diets): 121.40^b mg/dL | plasma fasting Insulin ([3]; Regular Diets): 0.669^b ng/mL | H&E histology of brain, kidneys, liver, heart and lungs [4]: no microscopic lesions | adverse effects or clinical signs throughout the study [4]: No negative adverse effects | Relative Proliferation Index B cells [5]: 1.15 ± 0.63 and 1.16 ± 0.27 | Relative Proliferation Index CD4^+ T cells [5]: 0.68 ± 0.48 and 1.10 ± 0.63 | Counts/minute spleen (cRPMI & ConA) [6, 14]: 1905.27 ± 254.42 Counts/minute | Stimulation index spleen [6, 15]: 25.20 ± 3.16 | Counts/minute spleen (cRPMI) [6, 16]: 73.17 ± 10.96 Counts/minute | Counts/minute lymph nodes (cRPMI & ConA) [7, 14]: 929.06 ± 161.10 Counts/minute | Stimulation index lymph nodes [7, 15]: 22.40 ± 3.61 | Counts/minute lymph nodes (cRPMI) [7, 16]: 43.12 ± 3.76 Counts/minute | glucose tolerance versus control diet ([8]; high fat diets): normalizes impaired glucose tolerance | glucose tolerance versus control diet ([8]; regular diets): not different | fatty liver or enlarged viscera [9]: not observed | colonic lymph nodes: CD3^+ T cells [10]: 10.24 ± 0.85 | colonic lymph nodes: CD4^+ T cells [10]: 6.65 ± 0.58 | colonic lymph nodes: CD8^+ T cells [10]: 4.53 ± 0.41 | colonic lymph nodes: CD19^+ T cells [10]: 5.98 ± 0.72 | colonic lymph nodes: Lymphocytes [10]: 18.64 ± 1.53 ×10^6/mL | colonic lymph nodes: TCR αβ^+T cells [10]: 11.78 ± 1.08 | colonic lymph nodes: Weight [10]: 261.66 mg | colonic lymph nodes: Weight ([10]; listed as Punicic Acid): 261.66 ± 3.28 mg | thymus: CD4^+ thymocytes [11]: 2.51 ± 0.28 | thymus: CD4^+CD8^+ thymocytes [11]: 63.25 ± 8.73 | thymus: CD8^+ thymocytes [11]: 1.34 ± 0.18 | thymus: Lymphocytes [11]: 69.18 ± 9.56 ×10^6/mL | thymus: TCR αβ^+ thymocytes [11]: 9.12 ± 1.21 | thymus: Weight [11]: 845.00 ± 4.68 mg | spleen: CD3^+ T cells [12]: 30.05 ± 1.78 | spleen: CD4^+ T cells [12]: 17.04 ± 1.10 | spleen: CD8^+ T cells [12]: 12.72 ± 0.73 | spleen: CD19^+ T cells [12]: 102.22 ± 5.42 | spleen: TCR αβ^+T cells [12]: 33.12 ± 1.93 | spleen: Total # of lymphocytes [12]: 144.21 ± 7.13 ×10^6/mL | spleen: Weight [12]: 884.54 ± 3.30 mg
